The compounds below were run against T1, human TLR7 (Homo sapiens, UniProt Q9NYK1) (assay: Reporter gene assay (HEK293 cells with human TLR7 and NF-kB-driven luciferase reporter)). Conditions: HEK 293 cells stably transfected with human TLR7 and NF-kB-driven luciferase reporter; 7 hours incubation; EC50 relative to activity of resiquimod set to 100%.
T1 construct: expressed in transfected cells
T1 sequence (Q9NYK1 27-1049): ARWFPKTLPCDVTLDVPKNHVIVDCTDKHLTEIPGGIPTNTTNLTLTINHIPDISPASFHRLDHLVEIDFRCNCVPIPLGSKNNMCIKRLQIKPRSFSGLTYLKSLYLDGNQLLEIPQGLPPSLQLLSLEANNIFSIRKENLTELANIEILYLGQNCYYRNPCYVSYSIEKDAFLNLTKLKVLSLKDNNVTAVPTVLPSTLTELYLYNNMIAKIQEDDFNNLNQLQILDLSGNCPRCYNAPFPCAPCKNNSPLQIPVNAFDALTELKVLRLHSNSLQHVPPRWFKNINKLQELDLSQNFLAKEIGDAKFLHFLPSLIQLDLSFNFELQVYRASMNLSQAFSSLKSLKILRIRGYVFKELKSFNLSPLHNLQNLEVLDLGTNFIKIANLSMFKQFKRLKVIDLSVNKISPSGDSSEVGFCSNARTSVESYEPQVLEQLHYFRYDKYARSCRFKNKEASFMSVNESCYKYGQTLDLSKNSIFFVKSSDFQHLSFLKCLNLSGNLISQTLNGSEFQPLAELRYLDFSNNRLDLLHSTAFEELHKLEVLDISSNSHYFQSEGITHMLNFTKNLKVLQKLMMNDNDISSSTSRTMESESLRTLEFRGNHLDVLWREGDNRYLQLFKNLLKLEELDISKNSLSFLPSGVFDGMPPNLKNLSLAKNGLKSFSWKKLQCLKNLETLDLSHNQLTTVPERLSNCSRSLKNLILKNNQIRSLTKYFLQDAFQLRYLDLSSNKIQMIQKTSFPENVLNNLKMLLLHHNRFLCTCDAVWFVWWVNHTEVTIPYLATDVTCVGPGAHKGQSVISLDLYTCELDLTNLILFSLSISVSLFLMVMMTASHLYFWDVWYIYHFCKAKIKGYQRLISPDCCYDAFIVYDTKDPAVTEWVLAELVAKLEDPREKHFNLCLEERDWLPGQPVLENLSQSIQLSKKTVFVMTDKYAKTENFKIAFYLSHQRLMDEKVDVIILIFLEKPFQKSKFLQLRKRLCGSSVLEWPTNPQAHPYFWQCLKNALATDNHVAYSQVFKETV
Type: cell-based
Experimental: Human embryonic kidney 293 (HEK 293) cells were stably transfected with human TLR7 and an NF-kB-driven luciferase reporter vector (pNifty-Luciferase). As a control assay, normal Hek293 transfected with pNifty-Luc were used. Cells were cultured in DMEM supplemented with 2 mM L-glutamine, 10% heart inactivated FBS, 1% penicillin and streptomycin, 2 μg/ml puromycin (InvivoGen #ant-pr-5) and 5 μg/ml of blasticidin (Invitrogen #46-1120). Bright-Glo™ Luciferase assay buffer and substrate were supplied by Promega #E263B and #E264B (assay substrate and buffer respectively). 384 well clear-bottom plates were supplied by Greiner bio-one (#789163-G) and were custom bar-coded plates.
Cells were plated at 25,000 cells/well in 384-well plates in a final volume of 50 μl of media. Cells were allowed to adhere to the plates after overnight (18 hours) culture at 37° C. and 5% CO2. Serially diluted experimental and positive control compounds were then dispensed to each well and incubated for 7 hours at 37° C. and 5% CO2. Cells stimulated with DMSO alone also serve as negative controls. After the incubation, 30 μl of the pre-mix assay buffer and substrate buffer were added to each well according to manufacturer's instructions. The luminescence signal was read on a CLIPR machine with an integration time of 20 seconds per plate.
Dose response curves are generated for each compound and EC50 values were determined as the concentration that gives 50% of the maximal signal.

Compound | EC50 [µM]
CCCC[C@@H](CO)Nc1nc(N)nc2ccn(Cc3cc(-c4nnn[nH]4)ccc3OC)c12 [Example 10, (S)-2-((2-amino-5-(2-methoxy-5-(1H-tetrazol-5-yl)benzyl)-5H-pyrrolo[3,2-d]pyrimidin-4-yl)amino)hexan-1-ol] | 0.2
CCCCCNc1nc(N)nc2ccn(Cc3cc(P(=O)(O)OC)ccc3OC)c12 [Example 20, methyl hydrogen (3-((2-amino-4-(pentylamino)-5H-pyrrolo[3,2-d]pyrimidin-5-yl)methyl)-4-methoxyphenyl)phosphonate] | 0.3
CCCC[C@@H](CO)Nc1nc(N)nc2ccn(Cc3cc(CC(=O)O)ccc3OC)c12 [Example 5, (S)-2-(3-((2-amino-4-((1-hydroxyhexan-2-yl)amino)-5H-pyrrolo[3,2-d]pyrimidin-5-yl)methyl)-4-methoxyphenyl)acetic acid] | 0.4
CCCCCNc1nc(N)nc2ccn(Cc3cc(C(F)(F)c4nnn[nH]4)ccc3OC)c12 [Example 16, 5-(5-(difluoro(1H-tetrazol-5-yl)methyl)-2-methoxybenzyl)-N4-pentyl-5H-pyrrolo[3,2-d]pyrimidine-2,4-diamine] | 0.2
CCC[C@@H](CO)Nc1nc(N)nc2ccn(Cc3cc(Cc4nnn[nH]4)ccc3OC)c12 [Example 7, (S)-2-((5-(5-((1H-tetrazol-5-yl)methyl)-2-methoxybenzyl)-2-amino-5H-pyrrolo[3,2-d]pyrimidin-4-yl)amino)pentan-1-ol] | 0.8
CCCC[C@@H](CO)Nc1nc(N)nc2ccn(Cc3cc(CCC(=O)O)ccc3OC)c12 [Example 23, (S)-3-(3-((2-amino-4-((1-hydroxyhexan-2-yl)amino)-5H-pyrrolo[3,2-d]pyrimidin-5-yl)methyl)-4-methoxyphenyl)propanoic acid] | 0.4
CCCCCNc1nc(N)nc2ccn(Cc3ccc(CN4CCC[C@H]4C(=O)O)cc3OC)c12 [Example 25, (S)-1-(4-((2-amino-4-(pentylamino)-5H-pyrrolo[3,2-d]pyrimidin-5-yl)methyl)-3-methoxybenzyl)pyrrolidine-2-carboxylic acid] | 0.008
CCCCCNc1nc(N)nc2ccn(Cc3ccc(-c4nnn[nH]4)cc3OC)c12 [Example 14, 5-(2-methoxy-4-(1H-tetrazol-5-yl)benzyl)-N4-pentyl-5H-pyrrolo[3,2-d]pyrimidine-2,4-diamine] | 1.4
CCCCCNc1nc(N)nc2ccn(Cc3cc(OCc4nnn[nH]4)ccc3OC)c12 [Example 1, 5-(5-((1H-tetrazol-5-yl)methoxy)-2-methoxybenzyl)-N4-pentyl-5H-pyrrolo[3,2-d]pyrimidine-2,4-diamine] | 0.1
CCCC[C@@H](CO)Nc1nc(N)nc2ccn(Cc3cc(C(C)(C)c4nnn[nH]4)ccc3OC)c12 [Example 12, (S)-2-((5-(5-(2-(1H-tetrazol-5-yl)propan-2-yl)-2-methoxybenzyl)-2-amino-5H-pyrrolo[3,2-d]pyrimidin-4-yl)amino)hexan-1-ol] | 0.2
CCCC[C@@H](CO)Nc1nc(N)nc2ccn(Cc3cc(Cc4nnn[nH]4)ccc3OC)c12 [Example 6, (S)-2-((5-(5-((1H-tetrazol-5-yl)methyl)-2-methoxybenzyl)-2-amino-5H-pyrrolo[3,2-d]pyrimidin-4-yl)amino)hexan-1-ol] | 0.1
CCCCCNc1nc(N)nc2ccn(Cc3cc(C(C)(C)c4nnn[nH]4)ccc3OC)c12 [Example 11, 5-(5-(2-(1H-tetrazol-5-yl)propan-2-yl)-2-methoxybenzyl)-N4-pentyl-5H-pyrrolo[3,2-d]pyrimidine-2,4-diamine] | 0.1

The remaining lines, values ahead:

EC50 [µM] | Compound
0.6 | CCCCCNc1nc(N)nc2ccn(Cc3cc(CC[C@@H](O)C[C@@H](O)CC(=O)O)ccc3OC)c12 [Example 18, (3R,5R)-7-(3-((2-amino-4-(pentylamino)-5H-pyrrolo[3,2-d]pyrimidin-5-yl)methyl)-4-methoxyphenyl)-3,5-dihydroxyheptanoic acid]
0.8 | CCCCCCNc1nc(N)nc2ccn(Cc3cc(-c4nnn[nH]4)ccc3OC)c12 [Example 9, N4-hexyl-5-(2-methoxy-5-(1H-tetrazol-5-yl)benzyl)-5H-pyrrolo[3,2-d]pyrimidine-2,4-diamine]
0.2 | CCCCCNc1nc(N)nc2ccn(Cc3cc(Cc4nnn(CC(=O)O)n4)ccc3OC)c12 [Example 3, 2-(5-(3-((2-amino-4-(pentylamino)-5H-pyrrolo[3,2-d]pyrimidin-5-yl)methyl)-4-methoxybenzyl)-2H-tetrazol-2-yl)acetic acid]
0.05 | CCCCCNc1nc(N)nc2ccn(Cc3cc(CC(=O)O)ccc3OC)c12 [Example 4, 2-(3-((2-amino-4-(pentylamino)-5H-pyrrolo[3,2-d]pyrimidin-5-yl)methyl)-4-methoxyphenyl)acetic acid]
0.1 | CCCCCNc1nc(N)nc2ccn(Cc3cc(C(=O)O)ccc3OC)c12 [Example 13, 3-((2-amino-4-(pentylamino)-5H-pyrrolo[3,2-d]pyrimidin-5-yl)methyl)-4-methoxybenzoic acid]
0.7 | CCCCCNc1nc(N)nc2ccn(Cc3cc(/C=C/C(=O)O)ccc3OC)c12 [Example 22, (E)-3-(3-((2-amino-4-(pentylamino)-5H-pyrrolo[3,2-d]pyrimidin-5-yl)methyl)-4-methoxyphenyl)acrylic acid]
0.4 | CCCCCNc1nc(N)nc2ccn(Cc3cc(CCC(=O)O)ccc3OC)c12 [Example 21, 3-(3-((2-amino-4-(pentylamino)-5H-pyrrolo[3,2-d]pyrimidin-5-yl)methyl)-4-methoxyphenyl)propanoic acid]
0.3 | CCCCCNc1nc(N)nc2ccn(Cc3cc(-c4nnn[nH]4)ccc3OC)c12 [Example 8, 5-(2-methoxy-5-(1H-tetrazol-5-yl)benzyl)-N4-pentyl-5H-pyrrolo[3,2-d]pyrimidine-2,4-diamine]
0.08 | CCCCCNc1nc(N)nc2ccn(Cc3cc(CN4CCC[C@@H]4C(=O)O)ccc3OC)c12 [Example 24, (R)-1-(3-((2-amino-4-(pentylamino)-5H-pyrrolo[3,2-d]pyrimidin-5-yl)methyl)-4-methoxybenzyl)pyrrolidine-2-carboxylic acid]
0.08 | CCCCCNc1nc(N)nc2ccn(Cc3cc(P(=O)(O)O)ccc3OC)c12 [Example 19, (3-((2-amino-4-(pentylamino)-5H-pyrrolo[3,2-d]pyrimidin-5-yl)methyl)-4-methoxyphenyl)phosphonic acid]
0.05 | CCCCCNc1nc(N)nc2ccn(Cc3cc(Cc4nnn[nH]4)ccc3OC)c12 [Example 2, 5-(5-((1H-tetrazol-5-yl)methyl)-2-methoxybenzyl)-N4-pentyl-5H-pyrrolo[3,2-d]pyrimidine-2,4-diamine]
0.4 | CCCCCNc1nc(N)nc2ccn(Cc3ccc(OCC(=O)O)cc3OC)c12 [Example 26, 2-(4-((2-amino-4-(pentylamino)-5H-pyrrolo[3,2-d]pyrimidin-5-yl)methyl)-3-methoxyphenoxy)acetic acid]
0.5 | CCCCCNc1nc(N)nc2ccn(Cc3cc(C(F)(F)C(=O)O)ccc3OC)c12 [Example 17, 2-(3-((2-amino-4-(pentylamino)-5H-pyrrolo[3,2-d]pyrimidin-5-yl)methyl)-4-methoxyphenyl)-2,2-difluoroacetic acid]
0.06 | CCCCCNc1nc(N)nc2ccn(Cc3cc(CCc4nnn[nH]4)ccc3OC)c12 [Example 15, 5-(5-(2-(1H-tetrazol-5-yl)ethyl)-2-methoxybenzyl)-N4-pentyl-5H-pyrrolo[3,2-d]pyrimidine-2,4-diamine]
